In brackets after ≈: the same amount, converted by molar mass. Entries after “also recorded” stand apart in the source; their conditions may differ. Read-outs that look alike come from different tables or passages of the source.
How the values were obtained:
[1] = Scoville Heat Units, cited from earlier work
[2] = background; cited from earlier work
[3] = target: T1, TRPV1 (Mus musculus, UniProt Q704Y3); test: Ca2+ imaging of primary mouse dorsal root ganglion (DRG) neurons, TRPV1 desensitization; type: cell-based; details: then capsaicin 0.5 μM
T1 construct: DRG was isolated from male and female mice expressing GCaMP6f in neurons; endogenous in cells; host or cells: dissociated primary DRG neurons from GCaMP6f-expressing mice

[4] = test system: Src protein activation in NCI-H460 cells; test: Cancer cell immunocytochemistry assay, Phospho-Src (Y416), NCI-H460; type: cell-based, human; details: YB-1 15 μM, capsaicin 50 μM, 1-6 h
Procedure: (§1) Human cancer cells (15,000 cells/well) in 96 well half area microplate (Cat #3882, Corning) were incubated overnight at 37° C., then compounds or DMSO control were added to the cell culture and incubated at 37° C. for 1-6 h. The cells were sequentially fixed with 4% formalin, permeabilized with 0.5% Triton X-100, blocked with 5% BSA in PBS, incubated with Human Phospho-Src (Y416) Antibody (Cat #MAB2685, R&D Systems) at rt for 2 h, incubated with the secondary antibody Goat Ant-Rabbit IgG H&L (Alexa Fluor 488) (Cat #ab150077, abeam) for 45 min, and incubated with DAPI (Cat #D9542, Sigma-Aldrich) for 5 min. Finally, the cells were washed and covered with PBS. The cell images were visualized on an inverted fluorescence microscope (Leica DMIL Fluorescent Inverted Microscope with Digital Camera, Leica Microsystems). Pictures were taken [FIGS. 14A-C. Green: Human Phospho-Src (Y416), the activated form of the Src protein; Blue: DAPI (stain nucleus of cell)]. The fluorescence intensity values from 5 random cells were averaged, subtracted by the background value (area between cells) and the blank value [the blank control without the Human Phospho-Src (Y416) Antibody], then plotted as percentage against the DMSO control to indicate the effects of compound treatment on the cellular Src kinase phosphorylation levels in the cancer cells (FIGS. 15A-D).

[5] = Rodent eye wiping assay (pungency)
[6] = test system: Src protein activation in OVCAR-8 cells; test: Cancer cell immunocytochemistry assay, Phospho-Src (Y416), OVCAR-8; type: cell-based, human; details: YB-1 15 μM, capsaicin 50 μM, 1-6 h
Procedure: as §1

[7] = test system: MDA-MB-231; test: Human cancer cell growth inhibition assay (ATP assay), MDA-MB-231; type: cell-based; details: Homo sapiens, MDA-MB-231, 96 h; 4 days; Means±SEM from three independent experiments; read-out: MDA-MB-231, IC50
[8] = SubQ; YB-16 3, 6 mg/kg; capsaicin 2 mg/kg
[9] = test system: MDA-MB-231 breast cancer tumors; details: literature; cited from earlier work
[10] = target: T2, human TRPV3 (Homo sapiens, UniProt Q8NET8); test: In vitro Ca2+ flux counter-screen in human TRPV3 overexpressing cells; type: cell-based; details: counter-screen; read-out: TRPV3 EC50
T2 construct: expressed in transfected cells; host or cells: overexpressing cells
T2 sequence (Q8NET8 1-790): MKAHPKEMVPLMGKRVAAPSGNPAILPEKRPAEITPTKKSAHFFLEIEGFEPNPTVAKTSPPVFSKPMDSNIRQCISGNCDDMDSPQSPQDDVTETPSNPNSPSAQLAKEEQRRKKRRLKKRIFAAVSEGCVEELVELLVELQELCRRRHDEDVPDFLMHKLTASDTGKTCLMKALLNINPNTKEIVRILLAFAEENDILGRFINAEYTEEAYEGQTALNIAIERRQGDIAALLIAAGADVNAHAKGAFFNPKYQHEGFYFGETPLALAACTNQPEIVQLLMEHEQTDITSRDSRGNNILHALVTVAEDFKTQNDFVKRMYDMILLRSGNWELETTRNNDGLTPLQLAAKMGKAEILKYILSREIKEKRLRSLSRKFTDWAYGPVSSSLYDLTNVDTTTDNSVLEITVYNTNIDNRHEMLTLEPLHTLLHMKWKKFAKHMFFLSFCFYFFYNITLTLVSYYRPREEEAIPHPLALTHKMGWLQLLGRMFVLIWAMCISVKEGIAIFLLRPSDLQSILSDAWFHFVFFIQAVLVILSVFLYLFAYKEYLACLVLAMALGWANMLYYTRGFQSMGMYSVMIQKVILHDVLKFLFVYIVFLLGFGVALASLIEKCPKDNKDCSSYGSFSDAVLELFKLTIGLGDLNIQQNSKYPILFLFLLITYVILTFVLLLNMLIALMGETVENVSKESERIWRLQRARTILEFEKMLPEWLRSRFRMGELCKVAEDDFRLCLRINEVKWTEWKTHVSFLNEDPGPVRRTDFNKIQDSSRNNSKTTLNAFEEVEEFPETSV

[11] = test system: OVCAR-8 cell invasion; test: Cancer cell invasion assay, OVCAR-8; type: cell-based, human; details: 24 h
Procedure: A cancer cell invasion assay was developed based on literature protocols (Methods 2005, 37, 208; EMBO J 2002, 21, 6289; Cellular Signalling 2012, 24, 1276.). Membrane matrix gel (Cat #A1413201, ThermoFisher) was diluted in ice-cold, serum-free RPMI 1640 Medium (Cat #31800022, ThermoFisher) at a concentration of 0.5-0.6 mg/mL. Then it was added to the upper compartment (100 μL per cup) of millicell inserts (Cat #PI8P01250, ThermoFisher) placed in a 24-well plate (Part no. 229123, Celltreat). The plate was incubated at 37° C. for 2 h to allow the liquid gel to solidify. RPMI 1640 Medium supplemented with 10% FBS (300 μL) was added to the well of the plate (lower compartment) as attractant, then DMSO or compounds were added. Human cancer cells (1×10^5 cells in 200 μL of RPMI 1640 Medium) were added to the upper compartment of the insert, then DMSO or compounds were added. After the plate was incubated at 37° C. for 24 h, the cells were fixed on the lower side of the insert membrane with 4% formaldehyde and stained with 1% crystal violet (Part no. IS12146, Innovating Science). The invaded cells on the lower side of the filter were counted under an inverted microscope equipped with either a 4× or a 10× objective (FIG. 11). The cell numbers from 5 random views were averaged and plotted as percentage against the DMSO control (FIG. 12A).

[12] = test system: Src protein activation in MDA-MB-231 cells; test: Cancer cell immunocytochemistry assay, Phospho-Src (Y416), MDA-MB-231; type: cell-based, human; details: YB-1 15 μM, capsaicin 50 μM, 1-6 h
Procedure: as §1

[13] = first treatment capsaicin 0.5 μM, YB-11 0.5 μM or YB-16 1.0 μM, paired t-test

T1 sequence (Q704Y3 whole entry): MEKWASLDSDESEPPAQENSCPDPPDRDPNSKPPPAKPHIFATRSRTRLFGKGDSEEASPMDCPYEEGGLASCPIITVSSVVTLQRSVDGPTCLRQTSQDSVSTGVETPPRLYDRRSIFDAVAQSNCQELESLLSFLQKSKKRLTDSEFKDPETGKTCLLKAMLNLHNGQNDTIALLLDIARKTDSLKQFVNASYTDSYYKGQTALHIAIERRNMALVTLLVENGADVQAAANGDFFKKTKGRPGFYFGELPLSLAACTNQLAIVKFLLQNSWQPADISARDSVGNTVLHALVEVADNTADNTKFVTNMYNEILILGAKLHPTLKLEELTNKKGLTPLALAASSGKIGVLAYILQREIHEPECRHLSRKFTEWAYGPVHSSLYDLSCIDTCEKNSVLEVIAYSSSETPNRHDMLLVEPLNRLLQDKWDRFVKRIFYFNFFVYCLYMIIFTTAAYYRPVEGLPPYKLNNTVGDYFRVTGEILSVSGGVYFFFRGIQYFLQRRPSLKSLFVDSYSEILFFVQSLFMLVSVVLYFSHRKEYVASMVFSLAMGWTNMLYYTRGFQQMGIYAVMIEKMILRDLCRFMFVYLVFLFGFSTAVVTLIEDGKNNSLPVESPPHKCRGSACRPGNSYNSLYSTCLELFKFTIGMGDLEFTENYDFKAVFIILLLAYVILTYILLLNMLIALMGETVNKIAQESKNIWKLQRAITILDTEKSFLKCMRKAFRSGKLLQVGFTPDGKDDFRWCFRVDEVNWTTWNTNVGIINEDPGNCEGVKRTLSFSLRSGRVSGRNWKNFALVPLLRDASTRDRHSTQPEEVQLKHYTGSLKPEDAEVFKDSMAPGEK

COc1cc(CNC(=O)CCCC/C=C/C(C)C)ccc1O [Capsaicin, trans-8-methyl-N-vanillyl-6-nonenamide, reference compound]
Pungency (SHU) [1]: 16,000,000 SHU
Pungency (SHU) ([1]; listed as capsaicin): 16.0 million
solubility in water [2]: 13 µg/mL (≈ 42.6 µM)
TRPV1-sensitive neurons showing desensitization ([3]; first treatment 0.5 μM): 96%
area under the curve of the Ca2+ signal of the second (capsaicin) application [3, 13]: statistically significant reduction; also recorded: significantly reduced
max Ca2+ signal of the second (capsaicin) application [3, 13]: statistically significant reduction; also recorded: significantly reduced
cellular Src kinase phosphorylation levels [4]: time-dependently reduced the cellular Src kinase phosphorylation levels
MPP ([5]; Moderate Pain-Producing Potency concentration: dose producing 10 normalized eye wipes): 0.041 mg/mL
Pungency RPP ([5]; Relative Pain-Producing Potency with Capsaicin set to 100): 100
Pungency RPP ([5]; Table 3 comparison, Capsaicin set to 100): 100
cellular Src kinase phosphorylation levels [6]: time-dependently reduced the cellular Src kinase phosphorylation levels
IC50 [7]: 387 ± 120 µM
effect on hot-plate reaction [8]: reduced hotplate sensitivity compared to vehicle
decrease of tumor size [9]: 50%
EC50 [10]: > 10 µM
inhibition of OVCAR-8 cell invasion [11]: dose-dependently inhibited
cellular Src kinase phosphorylation levels [12]: time-dependently reduced the cellular Src kinase phosphorylation levels
